Test results reported in PubChem BioAssay (NCI).
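Assay format: 96-well plates, 48-hour exposure. TGI: concentration producing complete growth inhibition.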

Experiments:
Experiment in all cases: NCI tumour cell line growth inhibition, 48 h
DMS 273 small cell lung = tested on: DMS 273 small cell lung
DMS 114 small cell lung = tested on: DMS 114 small cell lung
XF 498 CNS = tested on: XF 498 CNS
LXFL 529 NSCLC = tested on: LXFL 529 NSCLC
DLD-1 colon = tested on: DLD-1 colon
M19-MEL melanoma = tested on: M19-MEL melanoma
HOP-18 NSCLC = tested on: HOP-18 NSCLC
RXF-631 renal = tested on: RXF-631 renal
SNB-78 CNS = tested on: SNB-78 CNS

| SMILES | TGI (DMS 273 small cell lung) [µM] | TGI (DMS 114 small cell lung) [µM] | TGI (XF 498 CNS) [µM] | TGI (LXFL 529 NSCLC) [µM] | TGI (DLD-1 colon) [µM] | TGI (M19-MEL melanoma) [µM] | TGI (HOP-18 NSCLC) [µM] | TGI (RXF-631 renal) [µM] | TGI (SNB-78 CNS) [µM] |
| --- | --- | --- | --- | --- | --- | --- | --- | --- | --- |
| Cc1ccc(/C(O)=C/c2nc3c(nc2NC24CC5CC(CC(C5)C2)C4)c(=O)oc2ccccc23)cc1 | > 100 | > 100 | > 100 | > 100 | > 100 | > 100 | – | – | – |
| COc1ccc(N2C(=O)[C@H]3[C@H]4CC(C(C)(C)C)CC[C@H]4c4c(n(C)c5ccccc45)[C@H]3C2=O)cc1 (stereo not given in full) | > 100 | > 100 | > 100 | > 100 | > 100 | > 100 | > 100 | – | – |
| CCOC(=O)N1c2c(ccn2C)-c2ccn(C)c2N1C(=O)OCC | – | – | 30.7 | 30.9 | 29.5 | 80 | – | 45.8 | – |
| COc1ccc2cc3[nH]c(=O)cc(O)c3cc2c1OC | – | > 100 | > 100 | > 100 | – | > 100 | > 100 | > 100 | > 100 |
| CC(=O)OC[C@]1(C)CCCC2(C)C1CCC1C=C(C)[C@H]3CCC12C3 (stereo not given in full) | – | – | – | > 100 | > 100 | > 100 | – | – | > 100 |
| Cc1nc(C(N)=S)sc1C(=O)CC(=O)C(=O)Nc1ccccc1[N+](=O)[O-] | > 100 | > 100 | – | > 100 | > 100 | > 100 | > 100 | > 100 | > 100 |
| C/C=C1\C=C(OC)CN(CCc2c[nH]c3ccccc23)C1 | > 100 | > 100 | > 100 | > 100 | > 100 | > 100 | – | – | – |
| O=C1Cc2c([nH]c3ccccc23)-c2ccccc2N1 | > 100 | – | 91.8 | > 100 | > 100 | > 100 | > 100 | – | > 100 |
